The text below walks through data of patent publication US9540348B2, “Imidazole-1-yl pyrimidine derivatives, or pharmacutically acceptable salt thereof, and pharmaceutic composition comprising the same as an active ingredient” (Industry-University Cooperation Foundation Hanyang …, priority 2015, dated 2017).

Each structure is given as a SMILES string. “Also recorded” adds a separate entry of the source. Bounds are passed on as bounds.

The subject of assay [1] is A375P human melanoma cell line. Briefly: Antiproliferative activity to A375P human melanoma cell line. The following applies: for GI50: A375P human melanoma cell line, read-out: A375P (GI50, Unit: μM); for potency against A375P, in words: A375P cell line, comparison with Sorafenib. The class given is cell-based. The method, then:
(§1) The antiproliferative activity of the compounds of Examples to A375P human melanoma cell line and U937 human leukemic monocyte lymphoma cell line are evaluated and listed in the following Table 1.

The subject of assay [2] is U937 human leukemic monocyte lymphoma cell line. Briefly: Antiproliferative activity to U937 human leukemic monocyte lymphoma cell line. The class given is cell-based. The note with it: for GI50: U-937, U937 human leukemic monocyte lymphoma cell line, read-out: U937 (GI50, Unit: μM); for potency against U937, in words: U937 cell line, comparison with Sorafenib. The method, then: as §1

On to `C[C@H](O)CNc1nccc(-n2ccnc2Cc2cccc(NC(=O)c3cc(N4CCN(C)CC4)cc(C(F)(F)F)c3)c2)n1` [Example 1, (S)—N-(3-((1-(2-((2-hydroxypropyl)amino)pyrimidin-4-yl)-1H-imidazol-2-yl)methyl)phenyl)-3-(4-methylpiperazin-1-yl)-5-(trifluoromethyl)benzamide], for which the values for the GI50 in assay [1] and in assay [2] were 12.3 µM and > 30 µM, respectively.
Regarding `Cc1cc(C)cc(C(=O)Nc2cccc(Cc3nccn3-c3ccnc(NC[C@H](C)O)n3)c2)c1` [Example 2, (S)—N-(3-((1-(2-((2-hydroxypropyl)amino)pyrimidin-4-yl)-1H-imidazol-2-yl)methyl)phenyl)-3,5-dimethylbenzamide], the GI50 in assay [2] was 16.8 µM.
For the compound `C[C@H](O)CNc1nccc(-n2ccnc2Cc2cccc(NC(=O)Cc3ccccc3F)c2)n1` [Example 4, (S)-2-(2-fluorophenyl)-N-(3-((1-(2-((2-hydroxypropyl)amino)pyrimidin-4-yl)-1H-imidazol-2-yl)methyl)phenyl)acetamide], the GI50 was 7.45 µM in assay [1] and > 30 µM in assay [2].
Taken in the same sequence, the figures for `C[C@H](O)CNc1nccc(-n2ccnc2Cc2cccc(NC(=O)c3cnn(-c4ccccc4)c3C(F)(F)F)c2)n1` [Example 5, (S)—N-(3-((1-(2-((2-hydroxypropyl)amino)pyrimidin-4-yl)-1H-imidazol-2-yl)methyl)phenyl)-1-phenyl-5-(trifluoromethyl)-1H-pyrazole-4-carboxamide] were 6.39 µM and 25.8 µM.
Taken in the same sequence, the figures for `C[C@H](O)CNc1nccc(-n2ccnc2Cc2cccc(NC(=O)c3ccc(Cl)cc3)c2)n1` [Example 6, (S)-4-chloro-N-(3-((1-(2-((2-hydroxypropyl)amino)pyrimidin-4-yl)-1H-imidazol-2-yl)methyl)phenyl)benzamide] were 10.2 µM and > 30 µM.
With `C[C@H](O)CNc1nccc(-n2ccnc2Cc2cccc(NC(=O)c3ccc4[nH]nnc4c3)c2)n1` [Example 9, (S)—N-(3-((1-(2-((2-hydroxypropyl)amino)pyrimidin-4-yl)-1H-imidazol-2-yl)methyl)phenyl)-1H-benzo[d][1,2,3]triazole-5-carboxamide], the GI50 was > 30 µM in assay [1] and 18.5 µM in assay [2].
`C[C@H](O)CNc1nccc(-n2ccnc2Cc2cccc(NC(=O)c3ccncc3)c2)n1` [Example 10, (S)—N-(3-((1-(2-((2-hydroxypropyl)amino)pyrimidin-4-yl)-1H-imidazol-2-yl)methyl)phenyl)isonicotinamide]: the GI50 in assay [1] was determined as 8.92 µM.
Turning to `C[C@H](O)CNc1nccc(-n2ccnc2Cc2cccc(NC(=O)Cc3ccc(-c4ccccc4)cc3)c2)n1` [Example 11, (S)-2-([1,1′-biphenyl]-4-yl)-N-(3-((1-(2-((2-hydroxypropyl)amino)pyrimidin-4-yl)-1H-imidazol-2-yl)methyl)phenyl)acetamide], the GI50 in assay [1] was found to be 11.2 µM; in assay [2], 10 µM.
For `C[C@H](O)CNc1nccc(-n2ccnc2Cc2cccc(NC(=O)c3ccc(-c4ccccc4)cc3)c2)n1` [Example 12, (S)—N-(3-((1-(2-((2-hydroxypropyl)amino)pyrimidin-4-yl)-1H-imidazol-2-yl)methyl)phenyl)-[1,1′-biphenyl]-4-carboxamide], in assay [1], the “potency against A375P, in words” value is listed as “large potencies; also recorded: better potencies than Sorafenib” and the GI50 is 0.6 µM. Besides, in assay [2], the “potency against U937, in words” value is “large potencies; also recorded: better potencies than Sorafenib” and the GI50 is 1.68 µM.
Consider `C[C@H](O)CNc1nccc(-n2ccnc2Cc2cccc(NC(=O)c3ccccc3Sc3ccccc3C#N)c2)n1` [Example 15, (S)-2-((2-cyanophenyl)thio)-N-(3-((1-(2-((2-hydroxypropyl)amino)pyrimidin-4-yl)-1H-imidazol-2-yl)methyl)phenyl)benzamide], for which the GI50 in assay [2] is 10 µM.
Consider `Cc1c(C)c2c(c(C)c1O)CC[C@](C)(C(=O)Nc1cccc(Cc3nccn3-c3ccnc(NC[C@H](C)O)n3)c1)O2` [Example 16, (R)-6-hydroxy-N-(3-((1-(2-(((S)-2-hydroxypropyl)amino)pyrimidin-4-yl)-1H-imidazol-2-yl)methyl)phenyl)-2,5,7,8-tetramethylchromane-2-carboxamide], for which the GI50 in assay [2] amounted to 23.6 µM.
As for `C[C@H](O)CNc1nccc(-n2ccnc2Cc2cccc(NC(=O)C(c3ccc(Cl)cc3)c3ccc(Cl)cc3)c2)n1` [Example 17, (S)-2,2-bis(4-chlorophenyl)-N-(3-((1-(2-(2-hydroxypropylamino)pyrimidin-4-yl)-1H-imidazol-2-yl)methyl)phenyl)acetamide], the GI50 amounted to 3.97 µM in assay [1] and 3.24 µM in assay [2].
For the compound `C[C@H](O)CNc1nccc(-n2ccnc2Cc2cccc(NC(=O)c3ccc(Cl)c(C(F)(F)F)c3)c2)n1` [Example 19, (S)-4-chloro-N-(3-((1-(2-((2-hydroxypropyl)amino)pyrimidin-4-yl)-1H-imidazol-2-yl)methyl)phenyl)-3-(trifluoromethyl)benzamide], in assay [1], the “potency against A375P, in words” value is on record as “large potencies” and the GI50 came out at 3.3 µM. In addition, in assay [2], the “potency against U937, in words” value is given as “large potencies” and the GI50 came to 6.83 µM.
With `C[C@H](O)CNc1nccc(-n2ccnc2Cc2cccc(NC(=O)c3cc(N4CCOCC4)cc(C(F)(F)F)c3)c2)n1` [Example 20, (S)—N-(3-((1-(2-((2-hydroxypropyl)amino)pyrimidin-4-yl)-1H-imidazol-2-yl)methyl)phenyl)-3-morpholino-5-(trifluoromethyl)benzamide], the GI50 in assay [1] worked out at 6.6 µM; in assay [2] it was 9.7 µM.
On to `C[C@H](O)CNc1nccc(-n2ccnc2Cc2cccc(NC(=O)Nc3cccc(Cl)c3)c2)n1` [Example 21, (S)-1-(3-chlorophenyl)-3-(3-((1-(2-((2-hydroxypropyl)amino)pyrimidin-4-yl)-1H-imidazol-2-yl)methyl)phenyl)urea], for which the GI50 was found to be 19.2 µM in assay [1] and 1.73 µM in assay [2].
On the same counts, the results for `C[C@H](O)CNc1nccc(-n2ccnc2Cc2cccc(NC(=O)Nc3ccc(Cl)c(Cl)c3)c2)n1` [Example 22, (S)-1-(3,4-dichlorophenyl)-3-(3-((1-(2-((2-hydroxypropyl)amino)pyrimidin-4-yl)-1H-imidazol-2-yl)methyl)phenyl)urea] are 26.2 µM and 15.3 µM.
As for `C[C@H](O)CNc1nccc(-n2ccnc2C(=O)c2cccc(NC(=O)c3cccc(C(F)(F)F)c3)c2)n1` [Example 25, (S)—N-(3-(1-(2-((2-hydroxypropyl)amino)pyrimidin-4-yl)-1H-imidazole-2-carbonyl)phenyl)-3-(trifluoromethyl)benzamide], the results for the GI50 in assay [1] and in assay [2] were > 30 µM and 3.78 µM, respectively.
On to `COc1ccc(-c2ccc(C(=O)Nc3cccc(C(=O)c4nccn4-c4ccnc(NC[C@H](C)O)n4)c3)o2)cc1` [Example 26, (S)—N-(3-(1-(2-((2-hydroxypropyl)amino)pyrimidin-4-yl)-1H-imidazole-2-carbonyl)phenyl)-5-(4-methoxyphenyl)furan-2-carboxamide], for which the GI50 in assay [1] stood at 9.39 µM; in assay [2], 2.55 µM.
Consider `C[C@H](O)CNc1nccc(-n2ccnc2C(=O)c2cccc(NC(=O)c3cc(N4CCOCC4)cc(C(F)(F)F)c3)c2)n1` [Example 27, (S)—N-(3-(1-(2-((2-hydroxypropyl)amino)pyrimidin-4-yl)-1H-imidazole-2-carbonyl)phenyl)-3-morpholino-5-(trifluoromethyl)benzamide], for which, in assay [2], the GI50 worked out at 4.9 µM.
Consider `C[C@H](O)CNc1nccc(-n2ccnc2C(=O)c2cccc(NC(=O)c3cc(N4CCN(C)CC4)cc(C(F)(F)F)c3)c2)n1` [Example 28, (S)—N-(3-(1-(2-((2-hydroxypropyl)amino)pyrimidin-4-yl)-1H-imidazole-2-carbonyl)phenyl)-3-(4-methylpiperazin-1-yl)-5-(trifluoromethyl)benzamide], for which the GI50 in assay [1] came out at 27.8 µM.
Same read-out and setting: then `C[C@H](O)CNc1nccc(-n2ccnc2C(=O)c2ccc(NC(=O)c3ccc(Cl)cc3)cc2)n1` [Example 33, (S)-4-chloro-N-(4-(1-(2-((2-hydroxypropyl)amino)pyrimidin-4-yl)-1H-imidazole-2-carbonyl)phenyl)benzamide], with 7.07 µM; and `C[C@H](O)CNc1nccc(-n2ccnc2C(=O)c2ccc(NC(=O)c3cccc(Cl)c3)cc2)n1` [Example 34, (S)-3-chloro-N-(4-(1-(2-((2-hydroxypropyl)amino)pyrimidin-4-yl)-1H-imidazole-2-carbonyl)phenyl)benzamide], with 5.92 µM.
With `C[C@H](O)CNc1nccc(-n2ccnc2C(=O)c2ccc(NC(=O)c3cc(N4CCN(C)CC4)cc(C(F)(F)F)c3)cc2)n1` [Example 36, (S)—N-(4-(1-(2-((2-hydroxypropyl)amino)pyrimidin-4-yl)-1H-imidazole-2-carbonyl)phenyl)-3-(4-methylpiperazin-1-yl)-5-(trifluoromethyl)benzamide], the GI50 in assay [1] is > 30 µM; in assay [2] it was 14.7 µM.
In the case of `C[C@H](O)CNc1nccc(-n2ccnc2C(=O)c2ccc(NC(=O)Nc3ccc(Cl)c(C(F)(F)F)c3)cc2)n1` [Example 38, (S)-1-(4-chloro-3-(trifluoromethyl)phenyl)-3-(4-(1-(2-((2-hydroxypropyl)amino)pyrimidin-4-yl)-1H-imidazole-2-carbonyl)phenyl)urea], the values for the GI50 in assay [1] and in assay [2] were > 30 µM and 7.45 µM, respectively.
For `C[C@H](O)CNc1nccc(-n2ccnc2C(=O)c2ccc(NC(=O)Nc3ccc(Cl)c(Cl)c3)cc2)n1` [Example 39, (S)-1-(3,4-dichlorophenyl)-3-(4-(1-(2-((2-hydroxypropyl)amino)pyrimidin-4-yl)-1H-imidazole-2-carbonyl)phenyl)urea], the figures for the GI50 in assay [1] and in assay [2] were > 30 µM and 11.6 µM, respectively.
As for `CNC(=O)c1cc(Oc2ccc(NC(=O)Nc3ccc(Cl)c(C(F)(F)F)c3)cc2)ccn1` [Sorafenib, reference compound], the GI50 amounted to 3.4 µM in assay [1] and 2.74 µM in assay [2].

One may read the GI50 as the concentration giving 50% growth inhibition.
